Experimental data: patent EP4806904A1, “POLYPEPTIDE AND USE THEREOF” (Sichuan Gooddoctor Panxi Pharmaceutical Co. Ltd, priority 2023, dated 2026)
Where a SMILES comes first, the peptide text is derived from it. [ ]: non-standard residue; d: D form.

What was measured:
[1] = test system: primary neural stem cells (NSCs); test: Differentiation of primary neural stem cells, βIII-tubulin fluorescence and Neurite Outgrowth Assay; type: cell-based, SD rats; settings: 100 µg/mL; for mean fluorescence intensity of the neuronal marker protein βIII-tubulin / neurite outgrowth (total neurite length, maximum neurite length, neurite terminals, neurite initiation points) / Longest neurite length / Average fluorescence intensity / Neurite initiation points (branches) / Number of neurite terminals / Total neurite length: 4 days; for mean fluorescence intensity of the neuronal marker protein βIII-tubulin: vs blank control group; for mean fluorescence intensity of the neuronal marker protein βIII-tubulin / neurite outgrowth (total neurite length, maximum neurite length, neurite terminals, neurite initiation points): in words; for neurite outgrowth (total neurite length, maximum neurite length, neurite terminals, neurite initiation points): Neurite Outgrowth Assay; for Longest neurite length / Average fluorescence intensity / Neurite initiation points (branches) / Number of neurite terminals / Total neurite length: significance vs blank control group; for Average fluorescence intensity: βIII-tubulin; for differentiation of NSCs into neuronal cells: conclusion based on the results of the two analytical methods
Protocol: This part of the experiment requires feeding male and female rats in advance, then extracting hippocampal neural stem cells from newborn SD rats within 24 h of birth, culturing them to P3 for identification, and then using them for experiments. • (1) Extraction and culture of primary neural stem cells (NSCs) • (2) NSCs that have been passaged to P3 and have good viability were seeded in differentiation medium (2% FBS+DMEM/F12 1:1 medium) in 48-well plates with a cell concentration of 5×10^4 cells/mL per well. After overnight culture for cell adherence, the cells were treated with drugs; • (3) Drug treatment was applied. The final concentration of the polypeptide of the invention was 100 µg/mL. Meanwhile, nerve growth factor (NGF, 50 ng/mL) was set as the positive control, and the cells were cultured in the incubator for another 4 days; • (4) Immunofluorescence staining (primary antibody βIII-tubulin) was performed after 4 days of treatment. The average fluorescence intensity of βIII-tubulin was analyzed and the Neurite Outgrowth Assay was performed using a high-content cell imaging analysis system.

[2] = test system: Brain microvascular endothelial cells (BMECs) and brain microvascular smooth muscle cells (BMVSMCs); test: In vitro angiogenesis assay, BMEC/BMVSMC co-culture on matrigel; type: cell-based, mouse; settings: 0.1 mg/L, 48 h
Protocol: First, mouse brain microvascular pellets were obtained by differential centrifugation. Brain microvascular endothelial cells (BMECs) and brain microvascular smooth muscle cells (BMVSMCs) were isolated by digestion with collagenase II, respectively, and cultured in a cell incubator with 5% CO2 at 37°C . Cells at passages 3-6 in good growth condition and logarithmic growth phase were selected for the in vitro angiogenesis assay.
One night before the experiment, the high-concentration matrigel was transferred from a -20°C or -80°C refrigerator to a 4°C refrigerator and allowed to thaw slowly overnight in the 4°C refrigerator. Pipette tips required for the formal experiment were sterilized in advance and pre-cooled in a 4°C refrigerator for subsequent use.
On the day of the experiment, the matrigel was added to a 96-well plate 1 h in advance and placed in a 37°C cell incubator until it solidified. Subsequently, the cells were washed 2 times with 2 mL of PBS buffer, followed by digestion with 0.25% trypsin to obtain EC and VSMC pellets, respectively, and cell counting was performed. A uniform cell suspension containing 5×10^3 BMVSMCs and 1×10^3 BMECs per well was then seeded into the 96-well plate pre-coated with the matrigel, and cultured in a 37°C, 5% CO2 cell incubator for 3 days.
During the culture period, tube formation was observed daily. The medium was changed on day 4, followed by treatment with the polypeptide of the invention at 0.1 mg/L or VEGFA at 10/15/20 ng/L for 48 h, respectively.
On day 5, the cell nuclei and live cells were labeled with Hoechst 33342 and Calcein AM, respectively. High-content brightfield and fluorescence imaging were then performed using a high-content screening system. Finally, angiogenesis in each treatment group was analyzed using the Angiogenesis Analyzer plugin for ImageJ, and statistical analysis was carried out with GraphPad Prism 10.

[3] = significance vs blank control group

Row | Molecule | mean fluorescence intensity of the neuronal marker protein βIII-tubulin [1] | Branch length [2, 3] | Cell count [2, 3] | Number of intersections [2, 3] | angiogenesis-promoting effects ([2]; vs normal group, in words) | neurite outgrowth (total neurite length, maximum neurite length, neurite terminals, neurite initiation points) [1] | Longest neurite length [1] | Average fluorescence intensity [1] | Neurite initiation points (branches) [1] | Number of neurite terminals [1] | Total neurite length [1] | also measured
1 | CC(C)C[C@H](NC(=O)[C@@H](NC(=O)CN)[C@@H](C)O)C(=O)O [Compound 38, H-Gly-Thr-Leu-OH] (H-Gly-Thr-Leu-OH) | tendency to enhance | ** (**p < 0.01) | * (*p < 0.05) | ** (**p < 0.01) | exhibited angiogenesis-promoting effects | – | – | – | – | – | – | –
2 | H-ALPAP-OH [Compound 30, H-Ala-Leu-Pro-Ala-Pro-OH] | significant increase | * (*p < 0.05) | ** (**p < 0.01) | – | – | tendency to promote neurite outgrowth | * (*p < 0.05) | *** (***p < 0.001) | – | – | – | –
3 | H-ALGAPGTL-OH [Compound 14, H-Ala-Leu-Gly-Ala-Pro-Gly-Thr-Leu-OH] | – | – | * (*p < 0.05) | * (*p < 0.05) | – | – | – | – | – | – | – | Branch length ([2]; vs normal group, in words): no significant effects; number of junctions ([2]; vs normal group, in words): promoting effects
4 | H-QLPAPGTLQHF-OH [Compound 25, H-Gln-Leu-Pro-Ala-Pro-Gly-Thr-Leu-Gln-His-Phe-OH] | significant increase | – | ** (**p < 0.01) | – | – | – | – | * (*p < 0.05) | – | – | – | cell proliferation ([2]; vs normal group, in words): only promoted cell proliferation
5 | CC(=O)N[C@@H](C)C(=O)N[C@@H](CC(C)C)C(=O)N1CCC[C@H]1C(=O)N[C@H](C)C(=O)N1CCC[C@H]1C(=O)NCC(=O)N[C@H](C(=O)N[C@@H](CC(C)C)C(N)=O)[C@@H](C)O [Compound 42, Ac-Ala-Leu-Pro-D-Ala-Pro-Gly-Thr-Leu-NH2] (Ac-ALP[dA]PGTL-NH2) | significant increase | * (*p < 0.05) | * (*p < 0.05) | – | – | – | – | * (*p < 0.05) | – | – | – | Branch length ([2]; vs normal group, in words): promoting effects; number of junctions ([2]; vs normal group, in words): no significant effects
6 | H-PAPGT-OH [Compound 27, H-Pro-Ala-Pro-Gly-Thr-OH] | – | – | – | – | – | promote neurite outgrowth | ** (**p < 0.01) | – | ** (**p < 0.01) | * (*p < 0.05) | * (*p < 0.05) | –
7 | H-PAPGTL-OH [Compound 26, H-Pro-Ala-Pro-Gly-Thr-Leu-OH] | tendency to enhance | * (*p < 0.05) | – | * (*p < 0.05) | exhibited angiogenesis-promoting effects | – | – | – | – | – | – | –
8 | CC(C)C[C@H](N)C(=O)N1CCC[C@H]1C(=O)N[C@@H](C)C(=O)N1CCC[C@H]1C(=O)O [Compound 31, H-Leu-Pro-Ala-Pro-OH] (H-LPAP-OH) | tendency to enhance | ** (**p < 0.01) | – | – | – | – | – | – | – | – | – | –
9 | CC(C)C[C@H](NC(=O)[C@@H](NC(=O)CNC(=O)[C@@H]1CCCN1C(=O)[C@H](C)NC(=O)[C@H]1CCCN1C(=O)[C@H](CC(C)C)NC(=O)[C@H](C)N)[C@@H](C)O)C(=O)O [Compound 4, H-Ala-Leu-D-Pro-Ala-Pro-Gly-Thr-Leu-OH] (H-AL[dP]APGTL-OH) | – | – | * (*p < 0.05) | – | – | – | *** (***p < 0.001) | – | ** (**p < 0.01) | ** (**p < 0.01) | ** (**p < 0.01) | cell proliferation ([2]; vs normal group, in words): only promoted cell proliferation
10 | H-APGTL-OH [Compound 34, H-Ala-Pro-Gly-Thr-Leu-OH] | significant increase | ** (**p < 0.01) | ** (**p < 0.01) | ** (**p < 0.01) | exhibited angiogenesis-promoting effects | promote neurite outgrowth | * (*p < 0.05) | * (*p < 0.05) | * (*p < 0.05) | ** (**p < 0.01) | * (*p < 0.05) | differentiation of NSCs into neuronal cells [1]: promote the differentiation of NSCs into neuronal cells with stable effects
11 | Ac-ALPAPGTL-OH [Compound 9, Ac-Ala-Leu-Pro-Ala-Pro-Gly-Thr-Leu-OH] | – | * (*p < 0.05) | – | – | – | – | – | – | – | – | – | Branch length ([2]; vs normal group, in words): promoting effects; number of junctions ([2]; vs normal group, in words): no significant effects
12 | H-PIASQHLNLAPAPGTI-OH [Compound 23, H-Pro-Ile-Ala-Ser-Gln-His-Leu-Asn-Leu-Ala-Pro-Ala-Pro-Gly-Thr-Ile-OH] | tendency to enhance | – | – | – | – | tendency to promote neurite outgrowth | – | – | – | * (*p < 0.05) | * (*p < 0.05) | –
13 | H-LPAPGTL-OH [Compound 29, H-Leu-Pro-Ala-Pro-Gly-Thr-Leu-OH] | tendency to enhance | – | – | – | – | – | – | – | – | – | – | –
14 | H-AKNQLPAPGTLQHFC-OH [Compound 24, H-Ala-Lys-Asn-Gln-Leu-Pro-Ala-Pro-Gly-Thr-Leu-Gln-His-Phe-Cys-OH] | significant increase | – | – | – | – | – | – | * (*p < 0.05) | * (*p < 0.05) | – | – | –
15 | H-ALPAPGT-OH [Compound 39, H-Ala-Leu-Pro-Ala-Pro-Gly-Thr-OH] | – | ** (**p < 0.01) | * (*p < 0.05) | ** (**p < 0.01) | exhibited angiogenesis-promoting effects | – | – | – | – | – | – | –
16 | CC(C)C[C@H](NC(=O)[C@H](C)N)C(=O)N1CCC[C@H]1C(=O)N[C@@H](C)C(=O)O [Compound 35, H-Ala-Leu-Pro-Ala-OH] (H-ALPA-OH) | significant increase | – | ** (**p < 0.01) | – | – | promote neurite outgrowth | ** (**p < 0.01) | * (*p < 0.05) | * (*p < 0.05) | * (*p < 0.05) | * (*p < 0.05) | differentiation of NSCs into neuronal cells [1]: promote the differentiation of NSCs into neuronal cells with stable effects; cell proliferation ([2]; vs normal group, in words): only promoted cell proliferation
17 | H-QLPAPGTL-OH [Compound 22, H-Gln-Leu-Pro-Ala-Pro-Gly-Thr-Leu-OH] | – | * (*p < 0.05) | – | – | – | promote neurite outgrowth | * (*p < 0.05) | – | * (*p < 0.05) | * (*p < 0.05) | * (*p < 0.05) | Branch length ([2]; vs normal group, in words): promoting effects; number of junctions ([2]; vs normal group, in words): no significant effects
18 | CC(=O)N[C@@H](C)C(=O)N[C@@H](CC(C)C)C(=O)N1CCC[C@H]1C(=O)N[C@@H](C)C(=O)N1CCC[C@@H]1C(=O)NCC(=O)N[C@H](C(=O)N[C@@H](CC(C)C)C(N)=O)[C@@H](C)O [Compound 41, Ac-Ala-Leu-Pro-Ala-D-Pro-Gly-Thr-Leu-NH2] (Ac-ALPA[dP]GTL-NH2) | – | ** (**p < 0.01) | *** (***p < 0.001) | ** (**p < 0.01) | exhibited angiogenesis-promoting effects | tendency to promote neurite outgrowth | – | – | * (*p < 0.05) | – | * (*p < 0.05) | –
19 | H-LPAPG-OH [Compound 33, H-Leu-Pro-Ala-Pro-Gly-OH] | – | ** (**p < 0.01) | ** (**p < 0.01) | ** (**p < 0.01) | exhibited angiogenesis-promoting effects | – | – | – | – | – | – | –
